The values below come from patent US20150344540A1, “NOVEL GLP-1 RECEPTOR AGONISTS WITH CHOLESTEROL EFFLUX ACTIVITY” (NOVO NORDISK A/S, priority 2012, published 2015).

Each structure is given as a SMILES string. Where a SMILES comes first, the peptide text is derived from it. [ ]: non-standard residue; d: D form. Aib = CC(C)(N)C(=O)O

One assay concerns Mouse monocyte/macrophage cell line, RAW 264.7. The assay can be described thus: Cholesterol efflux assay (3H-cholesterol, macrophage cell line). The assay is classed as cell-based. To be noted: RAW 264.7, 4 hrs incubation, 0.1% human serum albumin, ABCA1-mediated efflux.
Consider `CC[C@H](C)[C@H](NC(=O)[C@H](Cc1ccccc1)NC(=O)[C@H](CCC(=O)O)NC(=O)[C@H](CCCCN)NC(=O)[C@@H](NC(=O)[C@H](C)NC(=O)[C@H](CCC(=O)O)NC(=O)CNC(=O)[C@H](CCC(=O)O)NC(=O)[C@H](CC(C)C)NC(=O)[C@H](Cc1ccc(O)cc1)NC(=O)[C@H](CO)NC(=O)[C@H](CO)NC(=O)[C@@H](NC(=O)[C@H](CC(=O)O)NC(=O)[C@H](CO)NC(=O)[C@@H](NC(=O)[C@H](Cc1ccccc1)NC(=O)[C@@H](NC(=O)CNC(=O)[C@H](CCC(=O)O)NC(=O)C(C)(C)NC(=O)[C@@H](N)Cc1c[nH]cn1)[C@@H](C)O)[C@@H](C)O)C(C)C)C(C)C)C(=O)N[C@@H](C)C(=O)N[C@@H](Cc1c[nH]c2ccccc12)C(=O)N[C@@H](CC(C)C)C(=O)N[C@H](C(=O)N[C@@H](CCC(=O)O)C(=O)N[C@@H](CCCCN)C(=O)NC(C)(C)C(=O)N[C@@H](CCCCN)C(=O)N[C@@H](CCC(=O)O)C(=O)N[C@@H](Cc1ccccc1)C(=O)N[C@@H](Cc1c[nH]cn1)C(N)=O)C(C)C` [Compound 22, [Aib8,Glu23,Val25,Glu34,Lys35,Aib36,Lys37]-GLP-1-(7-37)-peptidyl-Glu-Phe-His amide] (H-H[Aib]EGTFTSDVSSYLEGEAVKEFIAWLVEK[Aib]KEFH-NH2), for which the “4 h Cholesterol Efflux Emax” value worked out at 106%.
On the same count and under the same terms, then `CC[C@H](C)[C@H](NC(=O)[C@H](Cc1ccccc1)NC(=O)[C@H](CCC(=O)O)NC(=O)[C@H](CCCNC(=N)N)NC(=O)[C@@H](NC(=O)[C@H](C)NC(=O)[C@H](CCC(=O)O)NC(=O)[C@H](CCC(=O)O)NC(=O)[C@H](CCC(=O)O)NC(=O)[C@H](CCSC)NC(=O)[C@H](CCC(N)=O)NC(=O)[C@H](CCCCN)NC(=O)[C@H](CO)NC(=O)[C@H](CC(C)C)NC(=O)[C@H](CC(=O)O)NC(=O)[C@H](CO)NC(=O)[C@@H](NC(=O)[C@H](Cc1ccccc1)NC(=O)[C@@H](NC(=O)CNC(=O)[C@H](CCC(=O)O)NC(=O)C(C)(C)NC(=O)[C@@H](N)Cc1c[nH]cn1)[C@@H](C)O)[C@@H](C)O)C(C)C)C(=O)N[C@@H](CCC(=O)O)C(=O)N[C@@H](Cc1c[nH]c2ccccc12)C(=O)N[C@@H](CC(C)C)C(=O)N[C@@H](CCCCN)C(=O)N[C@@H](CC(N)=O)C(=O)N[C@@H](CCCCN)C(=O)NC(C)(C)C(=O)N[C@@H](CC(C)C)C(=O)N[C@@H](CCC(=O)O)C(=O)N[C@@H](Cc1ccccc1)C(=O)N[C@@H](CC(C)C)C(=O)N[C@@H](CCC(=O)O)C(=O)N[C@@H](CC(C)C)C(=O)N[C@@H](CC(C)C)C(=O)O` [Compound 23, [Aib2,Glu21,Lys29,Aib30,Leu31,Glu32,Phe33,Leu34,Glu35,Leu36,Leu371-Exendin-4-(1-37)-peptide], with 99%.
Same read-out and setting: to `CC[C@H](C)[C@H](NC(=O)[C@H](Cc1ccccc1)NC(=O)[C@H](CCC(=O)O)NC(=O)[C@H](CCCNC(=N)N)NC(=O)[C@@H](NC(=O)[C@H](C)NC(=O)[C@H](CCC(=O)O)NC(=O)[C@H](CCC(=O)O)NC(=O)[C@H](CCC(=O)O)NC(=O)[C@H](CCSC)NC(=O)[C@H](CCC(N)=O)NC(=O)[C@H](CCCCN)NC(=O)[C@H](CO)NC(=O)[C@H](CC(C)C)NC(=O)[C@H](CC(=O)O)NC(=O)[C@H](CO)NC(=O)[C@@H](NC(=O)[C@H](Cc1ccccc1)NC(=O)[C@@H](NC(=O)CNC(=O)[C@H](CCC(=O)O)NC(=O)C(C)(C)NC(=O)[C@@H](N)Cc1c[nH]cn1)[C@@H](C)O)[C@@H](C)O)C(C)C)C(=O)N[C@@H](CCC(=O)O)C(=O)N[C@@H](Cc1c[nH]c2ccccc12)C(=O)N[C@@H](CC(C)C)C(=O)N[C@@H](CCCCN)C(=O)N[C@@H](CC(N)=O)C(=O)N[C@@H](CCCCN)C(=O)NC(C)(C)C(=O)N[C@@H](CC(C)C)C(=O)N[C@@H](CCC(=O)O)C(=O)N[C@@H](Cc1ccccc1)C(=O)N[C@@H](CC(C)C)C(=O)N[C@@H](CCC(=O)O)C(=O)N[C@@H](CC(C)C)C(=O)N[C@@H](CC(C)C)C(N)=O` [Compound 29, [Aib2,Glu21,Lys29,Aib30,Leu31,Glu32,Phe33,Leu34,Glu35,Leu36,Leu371-Exendin-4-(1-37)-peptide amide] belongs 81%; to `CC[C@H](C)[C@H](NC(=O)[C@H](Cc1ccccc1)NC(=O)[C@H](CCC(=O)O)NC(=O)[C@H](CCCNC(=N)N)NC(=O)[C@@H](NC(=O)[C@H](C)NC(=O)[C@H](CCC(=O)O)NC(=O)[C@H](CCC(=O)O)NC(=O)[C@H](CCC(=O)O)NC(=O)[C@H](CCSC)NC(=O)[C@H](CCC(N)=O)NC(=O)[C@H](CCCCN)NC(=O)[C@H](CO)NC(=O)[C@H](CC(C)C)NC(=O)[C@H](CC(=O)O)NC(=O)[C@H](CO)NC(=O)[C@@H](NC(=O)[C@H](Cc1ccccc1)NC(=O)[C@@H](NC(=O)CNC(=O)[C@H](CCC(=O)O)NC(=O)C(C)(C)NC(=O)[C@@H](N)Cc1c[nH]cn1)[C@@H](C)O)[C@@H](C)O)C(C)C)C(=O)N[C@@H](CCC(=O)O)C(=O)N[C@@H](Cc1c[nH]c2ccccc12)C(=O)N[C@@H](CC(C)C)C(=O)N[C@@H](CCCCN)C(=O)N[C@@H](CC(N)=O)C(=O)N[C@@H](CCCCN)C(=O)NCC(=O)N[C@@H](CC(C)C)C(=O)N[C@@H](CCC(=O)O)C(=O)N[C@@H](Cc1ccccc1)C(=O)N[C@@H](CC(C)C)C(=O)N[C@@H](CCC(=O)O)C(=O)N[C@@H](CC(C)C)C(=O)N[C@@H](CC(C)C)C(N)=O` [Compound 33, [Aib2,Glu21,Lys29,Leu31,Glu32,Phe33,Leu34,Glu35,Leu36,Leu371-Exendin-4-(1-37)-peptide amide] (H-H[Aib]EGTFTSDLSKQMEEEAVREFIEWLKNKGLEFLELL-NH2; N-terminus assumed), 87%.
For `CC[C@H](C)[C@H](NC(=O)[C@H](Cc1ccccc1)NC(=O)[C@H](CCC(=O)O)NC(=O)[C@H](CCCNC(=N)N)NC(=O)[C@@H](NC(=O)[C@H](C)NC(=O)[C@H](CCC(=O)O)NC(=O)[C@H](CCC(=O)O)NC(=O)[C@H](CCC(=O)O)NC(=O)[C@H](CCSC)NC(=O)[C@H](CCC(N)=O)NC(=O)[C@H](CCCCN)NC(=O)[C@H](CO)NC(=O)[C@H](CC(C)C)NC(=O)[C@H](CC(=O)O)NC(=O)[C@H](CO)NC(=O)[C@@H](NC(=O)[C@H](Cc1ccccc1)NC(=O)[C@@H](NC(=O)CNC(=O)[C@H](CCC(=O)O)NC(=O)C(C)(C)NC(=O)[C@@H](N)Cc1c[nH]cn1)[C@@H](C)O)[C@@H](C)O)C(C)C)C(=O)N[C@@H](CCC(=O)O)C(=O)N[C@@H](Cc1c[nH]c2ccccc12)C(=O)N[C@@H](CC(C)C)C(=O)N[C@@H](CCCCN)C(=O)N[C@@H](CC(N)=O)C(=O)N[C@@H](CCCCN)C(=O)NC(C)(C)C(=O)N[C@@H](CC(C)C)C(=O)N[C@@H](CO)C(=O)N[C@@H](Cc1ccccc1)C(=O)N[C@@H](CC(C)C)C(=O)N[C@@H](CCC(=O)O)C(=O)N[C@@H](CC(C)C)C(=O)N[C@@H](CC(C)C)C(N)=O` [Compound 36, [Aib2,Glu21,Lys29,Aib30,Leu31,Phe33,Leu34,Glu35,Leu36,Leu371-Exendin-4-(1-37)-peptide amide] (H-H[Aib]EGTFTSDLSKQMEEEAVREFIEWLKNK[Aib]LSFLELL-NH2; N-terminus assumed), the “4 h Cholesterol Efflux Emax” value came out at 95%.
Still for that read-out and setting: to `CC[C@H](C)[C@H](NC(=O)[C@H](Cc1ccccc1)NC(=O)[C@H](CCC(=O)O)NC(=O)[C@H](CCCNC(=N)N)NC(=O)[C@@H](NC(=O)[C@H](C)NC(=O)[C@H](CCC(=O)O)NC(=O)[C@H](CCC(=O)O)NC(=O)[C@H](CCC(=O)O)NC(=O)[C@H](CCSC)NC(=O)[C@H](CCC(N)=O)NC(=O)[C@H](CCCCN)NC(=O)[C@H](CO)NC(=O)[C@H](CC(C)C)NC(=O)[C@H](CC(=O)O)NC(=O)[C@H](CO)NC(=O)[C@@H](NC(=O)[C@H](Cc1ccccc1)NC(=O)[C@@H](NC(=O)CNC(=O)[C@H](CCC(=O)O)NC(=O)C(C)(C)NC(=O)[C@@H](N)Cc1c[nH]cn1)[C@@H](C)O)[C@@H](C)O)C(C)C)C(=O)N[C@@H](CCC(=O)O)C(=O)N[C@@H](Cc1c[nH]c2ccccc12)C(=O)N[C@@H](CC(C)C)C(=O)N[C@@H](CCCCN)C(=O)N[C@@H](CC(N)=O)C(=O)N[C@@H](CCCCN)C(=O)NC(C)(C)C(=O)N[C@@H](CC(C)C)C(=O)N[C@@H](CCC(=O)O)C(=O)N[C@@H](Cc1ccccc1)C(=O)N[C@@H](CC(C)C)C(=O)N[C@@H](C)C(=O)N[C@@H](CC(C)C)C(=O)N[C@@H](CC(C)C)C(N)=O` [Compound 41, [Aib2,Glu21,Lys29,Aib30,Leu31,Glu32,Phe33,Leu34,Leu36,Leu371-Exendin-4-(1-37)-peptide amide] (H-H[Aib]EGTFTSDLSKQMEEEAVREFIEWLKNK[Aib]LEFLALL-NH2; N-terminus assumed) belongs 98%; to `CC[C@H](C)[C@H](NC(=O)[C@H](Cc1ccccc1)NC(=O)[C@H](CCC(=O)O)NC(=O)[C@H](CCCNC(=N)N)NC(=O)[C@@H](NC(=O)[C@H](C)NC(=O)[C@H](CCC(=O)O)NC(=O)[C@H](CCC(=O)O)NC(=O)[C@H](CCC(=O)O)NC(=O)[C@H](CCSC)NC(=O)[C@H](CCC(N)=O)NC(=O)[C@H](CCCCN)NC(=O)[C@H](CO)NC(=O)[C@H](CC(C)C)NC(=O)[C@H](CC(=O)O)NC(=O)[C@H](CO)NC(=O)[C@@H](NC(=O)[C@H](Cc1ccccc1)NC(=O)[C@@H](NC(=O)CNC(=O)[C@H](CCC(=O)O)NC(=O)C(C)(C)NC(=O)[C@@H](N)Cc1c[nH]cn1)[C@@H](C)O)[C@@H](C)O)C(C)C)C(=O)N[C@@H](CCC(=O)O)C(=O)N[C@@H](Cc1c[nH]c2ccccc12)C(=O)N[C@@H](CC(C)C)C(=O)N[C@@H](CCCCN)C(=O)N[C@@H](CC(N)=O)C(=O)N[C@@H](CCCCN)C(=O)NC(C)(C)C(=O)N[C@@H](CC(C)C)C(=O)N[C@@H](CCC(=O)O)C(=O)N[C@@H](Cc1ccccc1)C(=O)N[C@@H](CC(C)C)C(N)=O` [Compound 42, [Aib2,Glu21, Lvs29,Aib30,Leu31,Glu32,Phe33,Leu34]-Exendin-4-(1-34)-peptide amide] (H-H[Aib]EGTFTSDLSKQMEEEAVREFIEWLKNK[Aib]LEFL-NH2; N-terminus assumed), 105%.

Staying with this assay, now noted: read-out: 4 h Cholesterol Efflux EC50; RAW 264.7, 4 hrs incubation, 0.1% human serum albumin, ABCA1-mediated efflux (CPT-cAMP induced minus non-induced).
Take `CC[C@H](C)[C@H](NC(=O)[C@H](Cc1ccccc1)NC(=O)[C@H](CCC(=O)O)NC(=O)[C@H](CCCNC(=N)N)NC(=O)[C@@H](NC(=O)[C@H](C)NC(=O)[C@H](CCC(=O)O)NC(=O)[C@H](CCC(=O)O)NC(=O)[C@H](CCC(=O)O)NC(=O)[C@H](CCSC)NC(=O)[C@H](CCC(N)=O)NC(=O)[C@H](CCCCN)NC(=O)[C@H](CO)NC(=O)[C@H](CC(C)C)NC(=O)[C@H](CC(=O)O)NC(=O)[C@H](CO)NC(=O)[C@@H](NC(=O)[C@H](Cc1ccccc1)NC(=O)[C@@H](NC(=O)CNC(=O)[C@H](CCC(=O)O)NC(=O)C(C)(C)NC(=O)[C@@H](N)Cc1c[nH]cn1)[C@@H](C)O)[C@@H](C)O)C(C)C)C(=O)N[C@@H](CCC(=O)O)C(=O)N[C@@H](Cc1c[nH]c2ccccc12)C(=O)N[C@@H](CC(C)C)C(=O)N[C@@H](CCCCN)C(=O)N[C@@H](CC(N)=O)C(=O)N[C@@H](CCCCN)C(=O)NC(C)(C)C(=O)N[C@@H](CC(C)C)C(=O)N[C@@H](CCC(=O)O)C(=O)N[C@@H](Cc1ccccc1)C(=O)N[C@@H](CC(C)C)C(=O)N[C@@H](CCC(=O)O)C(=O)N[C@@H](CC(C)C)C(=O)N[C@@H](CC(C)C)C(=O)O` [Compound 23, [Aib2,Glu21,Lys29,Aib30,Leu31,Glu32,Phe33,Leu34,Glu35,Leu36,Leu371-Exendin-4-(1-37)-peptide]: the EC50 was 730 nM.

As a reminder, the EC50 is the midpoint of the concentration-response curve.
